# Assay results taken from US4680172A, “Devices and methods for treating memory impairment” (Ciba-Geigy Corporation, priority 1985, dated 1987).
# Values joined by “and” are separate entries in the source; they are usually repeats but may differ in a detail not shown here. Identical values can stand only once.
# Experiments:
# [1] = Partition coefficient (K) between aqueous phase and mineral oil; format: physicochemical; conditions: pH 10 buffer
# Text: (§1) The partion coefficient (K) of a compound between an aqueous phase and mineral oil has been used as an indication of its potential to diffuse across skin. Permeability appears to be optimal when the partition coefficient is 1. Arecoline in pH 10 buffer (99.9% dissociation to the free base) yielded partition coefficients of 0.756 and 0.654 for concentrations of 1.0 M and 0.01 M, respectively. Thus, arecoline in its free base form is expected to have good in vitro transdermal flux.
# [2] = Stability of arecoline in solution; format: physicochemical; conditions: alkaline buffers
# [3] = Dissociation to the free base in buffer; format: physicochemical; conditions: pH 10 buffer
# Text: as §1
# [4] = Transdermal diffusion (flux) of aqueous arecoline through human cadaver skin, Franz diffusion cell; format: in vitro ADME
# Protocol: In order further to test the permeability of arecoline to human skin, the transdermal diffusion of aqueous arecoline was monitored using human cadaver skin mounted in a Franz diffusion cell; see Current Problems in Dermatology, 7, 58 (1978) and the description of Franz diffusion cells and apparatus published by the Crown Glass Company, a copy of which may be found in the file history of this case. The flux, J, of each solution was calculated from a plot of change in concentration versus time.
# The transdermal diffusion of arecoline was studied in several aqueous buffers from pH values of 6.4 to 9.0.
# Most of the skin samples were obtained from the back area of human cadavers. There was no systematic study to determine if the choice of donor-side would change the rate; however, it is presumed that the rate will be fastest in portions of the anatomy where the stratum corneum is relatively thin (chest, back, anterior forearm) and slowest where the stratum corneum is thickest (heel of hand, bottom of foot).
# Franz diffusion cells utilize the finite dose technique of in vitro drug delivery. Human cadaver skin was mounted in a diffusion chamber where it remined in constant contact with solution on both sides. The stratum corneum was in contact with a thin layer of concentrated drug in solution (donor side). The receiver side contained a constantly stirred, isotonic saline solution maintained at 32° C. Diffusion of the compound was monitored by removing aliquots from the receiver side and analyzing these samples by HPLC.
# The human skin used in all experiments was obtained from a medical school. All cadavers were refrigerated at death and excision was performed within 24 hours post-mortem. The skin was first treated with Betadine surgical scrub (Povidone-Iodine solution) and surfactant (the skin was scrubbed if dirty), rinsed with sterile water and then with Betadine rinse solution. The skin was then air-dried and swabbed with mineral oil prior to excision. A dermatome was used for excising the skin to […]. (-350 microns) thickness. Saline solution was used to rinse the excess mineral oil from the skin prior to treatment with Eagle's minimole essential medium (minerals, amino acids and sugars). To this solution, 15% glycerol was added and the skin was allowed to set for two hours. It was then removed from solution, packaged and frozen in liquid N2. The samples, packed in dry ice were shipped in styrofoam containers and kept frozen until use.
# For the flux experiments, skin samples were removed from the freezer and thawed immediately prior to use. The samples were examined visually for any tears or holes, then cut into smaller pieces, peeled from the gauze backing and mounted across the diffusion chamber with the stratum corneum side up. The donor-side cap was placed on top and the unit was clamped in place. The receiver-side was filled with a saline solution and stirred. The material in the receiver-side was sterile normal saline solution, which was adjusted to approximate the tonicity of the buffer solution on the donor-side. One ml of the drug solution was pipeted onto the donor-side of the skin and 50 microliter aliguots were withdrawn from the receiver-side at the various time intervals. These samples were injected onto an HPLC column under the aforementioned conditions.
# The donor solutions were prepared as 1.0 M (approximately 20% W/V) arecoline HCl or arecoline HBr in a phosphate, citrate, borate buffer adjusted to various pH values. Each flux experiment was repeated three to five times.
structure (smiles),measurement,setting,value
COC(=O)C1=CCCN(C)C1 [arecoline],partition coefficient (K),[1]; 0.01 M,0.654
same,partition coefficient (K),[1]; 1.0 M,0.756
same,stability of the free base in solution,[2],rapidly hydrolizes
same,dissociation to the free base,[3],99.9%
same,rate of arecoline diffusion versus pH,"[4]; aqueous buffers, pH 6.4 to 9.0",increases with increasing pH values
same,difference in rate between Caucasian and Negro skin,[4]; lower pH values (below 8),differences were observed between these two skin types
same,Flux,"[4]; pH 6.4 of 1M solution, skin RC (Right Chest), donor N",0.017 mg/cm^2 /hr.
same,Mean Flux,"[4]; pH 6.4 of 1M solution, skin donor N",0.017 mg/cm^2 /hr.
same,Mean Flux,"[4]; pH 7.0 of 1M solution, does not include the Negro skin",0.069 mg/cm^2 /hr.
same,Flux,"[4]; pH 7.0 of 1M solution, skin RB (Right Back), donor C",0.0545 mg/cm^2 /hr. and 0.0678 mg/cm^2 /hr. and 0.0833 mg/cm^2 /hr.
same,Flux,"[4]; pH 7.0 of 1M solution, skin RB (Right Back), donor N",0.0101 mg/cm^2 /hr. and 0.0057 mg/cm^2 /hr.
same,Mean Flux,"[4]; pH 7.5 of 1M solution, does not include the Negro skin",0.185 mg/cm^2 /hr.
same,Flux,"[4]; pH 7.5 of 1M solution, skin RB (Right Back), donor C",0.1651 mg/cm^2 /hr. and 0.1486 mg/cm^2 /hr. and 0.2246 mg/cm^2 /hr. and 0.2003 mg/cm^2 /hr.
same,Flux,"[4]; pH 7.5 of 1M solution, skin RB (Right Back), donor N",0.0383 mg/cm^2 /hr.
same,Mean Flux,"[4]; pH 8.0 of 1M solution, C and N skin",0.448 mg/cm^2 /hr.
same,Flux,"[4]; pH 8.0 of 1M solution, skin LB (Left Back), donor C",0.4524 mg/cm^2 /hr. and 0.3817 mg/cm^2 /hr.
same,amount transferred across skin,"[4]; pH 9.0, across 5 cm^2 in 24 hours",approximately 85 mgs
same,Mean Flux,"[4]; pH 9.0 of 1M solution, C and N skin",0.837 mg/cm^2 /hr.
same,Flux,"[4]; pH 9.0 of 1M solution, skin LB (Left Back), donor C",0.8868 mg/cm^2 /hr. and 0.8154 mg/cm^2 /hr.
same,Flux,"[4]; pH 9.0 of 1M solution, skin RB (Right Back), donor C",0.8551 mg/cm^2 /hr.
same,difference in rate between Caucasian and Negro skin,[4]; pH values of 8 and 9,There does not appear to be any difference in rate
